The values that follow are results of earlier work, collected in patent US11975079B2, “Truncated Evans Blue modified fibroblast activation protein inhibitor, preparation method and application thereof” (YANTAI LANNACHENG BIOTECHNOLOGY CO., LTD., priority 2021, dated 2024).

As for `N#C[C@@H]1CCCN1C(=O)CNC(=O)c1ccnc2ccc(OCCCN3CCN(C(=O)CN4CCN(CC(=O)O)CCN(CC(=O)O)CCN(CC(=O)O)CC4)CC3)cc12` [FAPI-02], the “decrease of retained dose at tumor site” value (24 hours later) is recorded as “about 75%”. Besides, the “clearance in blood circulation” value (according to current reports) is recorded as “completely cleared in blood circulation within one hour”.
